From ChEMBL document CHEMBL1201862, “PubChem BioAssay data set” (2004)
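Grown in 96-well plates, cells were treated for 48 hours with each compound at five concentrations. Insufficient inhibition: endpoint recorded as highest concentration tested. GI50 is the concentration that inhibits growth by half.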 Active and inactive are the calls of the source. Rule as the data show it: active = GI50 up to about 1.1 µM and inactive = higher.

Assays:
Experiment in all cases: NCI-60 cell line screen, 48 h
[1] = tested on: RXF 393
[2] = tested on: SNB-19
[3] = tested on: SR
[4] = tested on: TK-10
[5] = tested on: NCI-H460
[6] = tested on: OVCAR-4
[7] = tested on: SK-MEL-5
[8] = tested on: NCI-H23
[9] = tested on: MCF7
[10] = tested on: T47D
[11] = tested on: SK-MEL-2
[12] = tested on: SK-MEL-28
[13] = tested on: NCI-H522
[14] = tested on: SK-OV-3
[15] = tested on: NCI-H226
[16] = tested on: HT-29
[17] = tested on: HL-60
[18] = tested on: HOP-92
[19] = tested on: HOP-62
[20] = tested on: SF-295
[21] = tested on: RPMI-8226
[22] = tested on: A498
[23] = tested on: SF-268
[24] = tested on: A549
[25] = tested on: SN12C
[26] = tested on: LOX IMVI
[27] = tested on: CCRF-CEM
[28] = tested on: EKVX
[29] = tested on: K562
[30] = tested on: IGROV-1
[31] = tested on: DU-145
[32] = tested on: Hs-578T
[33] = tested on: M14
[34] = tested on: UACC-257
[35] = tested on: 786-0
[36] = tested on: MDA-MB-435
[37] = tested on: COLO 205
[38] = tested on: Malme-3M
[39] = tested on: KM12
[40] = tested on: SW-620
[41] = tested on: PC-3
[42] = tested on: ACHN
[43] = tested on: UO-31
[44] = tested on: OVCAR-3
[45] = tested on: OVCAR-8
[46] = tested on: CAKI-1
[47] = tested on: SNB-75
[48] = tested on: OVCAR-5
[49] = tested on: UACC-62
[50] = tested on: MDA-MB-231
[51] = tested on: HCT-116
[52] = tested on: SF-539
[53] = tested on: HCT-15
[54] = tested on: BT-549
[55] = tested on: U-251
[56] = tested on: NCI/ADR-RES
[57] = tested on: MOLT-4
[58] = tested on: HCC 2998

Which results are given for COc1cc2nc(-c3cccs3)[nH]c(=O)c2cc1OC?
GI50 [1]: > 100 µM (inactive); GI50 [2]: > 100 µM (inactive); GI50 [3]: 13.8 µM (inactive); GI50 [4]: > 100 µM (inactive); GI50 [5]: > 100 µM (inactive); GI50 [6]: > 100 µM (inactive); GI50 [7]: > 100 µM (inactive); GI50 [8]: > 100 µM (inactive); GI50 [9]: > 100 µM (inactive); GI50 [10]: > 100 µM (inactive); GI50 [11]: > 100 µM (inactive); GI50 [12]: > 100 µM (inactive); GI50 [13]: > 100 µM (inactive); GI50 [14]: > 100 µM (inactive); GI50 [15]: > 100 µM (inactive); GI50 [16]: > 100 µM (inactive); GI50 [17]: 35.4 µM (inactive); GI50 [18]: > 100 µM (inactive); GI50 [19]: > 100 µM (inactive); GI50 [20]: 86.7 µM (inactive); GI50 [21]: 65.5 µM (inactive); GI50 [22]: > 100 µM (inactive); GI50 [23]: > 100 µM (inactive); GI50 [24]: > 100 µM (inactive); GI50 [25]: > 100 µM (inactive); GI50 [26]: > 100 µM (inactive); GI50 [27]: 36.6 µM (inactive); GI50 [28]: > 100 µM (inactive); GI50 [29]: > 100 µM (inactive); GI50 [30]: 19.9 µM (inactive); GI50 [31]: > 100 µM (inactive); GI50 [32]: > 100 µM (inactive); GI50 [33]: > 100 µM (inactive); GI50 [34]: > 100 µM (inactive); GI50 [35]: > 100 µM (inactive); GI50 [36]: > 100 µM (inactive); GI50 [37]: > 100 µM (inactive); GI50 [38]: > 100 µM (inactive); GI50 [39]: > 100 µM (inactive); GI50 [40]: > 100 µM (inactive); GI50 [41]: > 100 µM (inactive); GI50 [42]: > 100 µM (inactive); GI50 [43]: > 100 µM (inactive); GI50 [44]: > 100 µM (inactive); GI50 [45]: > 100 µM (inactive); GI50 [46]: > 100 µM (inactive); GI50 [47]: > 100 µM (inactive); GI50 [48]: 28.6 µM (inactive); GI50 [49]: > 100 µM (inactive); GI50 [50]: 23.2 µM (inactive); GI50 [51]: 70.6 µM (inactive); GI50 [52]: 38.7 µM (inactive); GI50 [53]: > 100 µM; GI50 [54]: > 100 µM (inactive); GI50 [55]: 61.7 µM (inactive); GI50 [56]: > 100 µM (inactive)

With O=[N+]([O-])c1c(Br)cc(Br)c2c1Nc1c(ccc(Cl)c1Cl)S2 as the compound, how does the GI50 [1] read?
The GI50 was 19.6 µM (inactive).

And the GI50 [2]?
Its GI50 is 18.3 µM (inactive).

What about the GI50 [3] of the same compound?
Its GI50 is 5.86 µM (inactive).

What about the GI50 [4] of the same compound?
Its GI50 is 22.5 µM (inactive).

What about the GI50 [5] of the same compound?
The GI50 was 17.8 µM (inactive).

What about the GI50 [6] of the same compound?
Its GI50 is 13.9 µM (inactive).

And the GI50 [7]?
The GI50 was 13.6 µM (inactive).

And the GI50 [8]?
The GI50 was 14.4 µM (inactive).

And the GI50 [9]?
Its GI50 is 2.87 µM (inactive).

And the GI50 [10]?
Its GI50 is 1.61 µM (inactive).

What about the GI50 [11] of the same compound?
The GI50 was 18.5 µM (inactive).

And the GI50 [12]?
Its GI50 is 16.6 µM (inactive).

What about the GI50 [13] of the same compound?
Its GI50 is 6.53 µM (inactive).

And the GI50 [14]?
The GI50 was 19.6 µM (inactive).

What about the GI50 [15] of the same compound?
The GI50 was 5.96 µM (inactive).

What about the GI50 [16] of the same compound?
The GI50 was 11.7 µM (inactive).

What about the GI50 [17] of the same compound?
Its GI50 is 2.85 µM (inactive).

What about the GI50 [18] of the same compound?
Its GI50 is 18.7 µM (inactive).

What about the GI50 [19] of the same compound?
The GI50 was 18.8 µM (inactive).

And the GI50 [20]?
Its GI50 is 20.7 µM (inactive).

And the GI50 [21]?
Its GI50 is 14.4 µM (inactive).

What about the GI50 [22] of the same compound?
The GI50 was 21.1 µM (inactive).

And the GI50 [23]?
The GI50 was 16.3 µM (inactive).

And the GI50 [24]?
Its GI50 is 20.2 µM (inactive).

And the GI50 [25]?
Its GI50 is 13.8 µM (inactive).

What about the GI50 [57] of the same compound?
Its GI50 is 3.06 µM (inactive).

And the GI50 [26]?
The GI50 was 2.34 µM (inactive).

And the GI50 [27]?
The GI50 was 2.39 µM (inactive).

And the GI50 [28]?
Its GI50 is 16.6 µM (inactive).

What about the GI50 [29] of the same compound?
Its GI50 is 3.45 µM (inactive).

What about the GI50 [30] of the same compound?
Its GI50 is 14.9 µM (inactive).

And the GI50 [31]?
Its GI50 is 14.1 µM (inactive).

What about the GI50 [32] of the same compound?
Its GI50 is 25.1 µM (inactive).

What about the GI50 [33] of the same compound?
Its GI50 is 11.4 µM (inactive).

What about the GI50 [34] of the same compound?
Its GI50 is 8.49 µM (inactive).

And the GI50 [35]?
Its GI50 is 9.18 µM (inactive).

And the GI50 [36]?
The GI50 was 15.5 µM (inactive).

What about the GI50 [37] of the same compound?
Its GI50 is 11.9 µM (inactive).

What about the GI50 [38] of the same compound?
Its GI50 is 13.4 µM (inactive).

And the GI50 [39]?
The GI50 was 5.89 µM (inactive).

And the GI50 [40]?
Its GI50 is 7.14 µM (inactive).

What about the GI50 [41] of the same compound?
The GI50 was 17.7 µM (inactive).

And the GI50 [58]?
The GI50 was 12.4 µM (inactive).

What about the GI50 [42] of the same compound?
The GI50 was 16.8 µM (inactive).

And the GI50 [43]?
The GI50 was 7.91 µM (inactive).

And the GI50 [44]?
Its GI50 is 4.8 µM (inactive).

And the GI50 [45]?
Its GI50 is 2.79 µM (inactive).

What about the GI50 [46] of the same compound?
The GI50 was 16.5 µM (inactive).

And the GI50 [47]?
Its GI50 is 36.5 µM (inactive).

What about the GI50 [48] of the same compound?
Its GI50 is 17.9 µM (inactive).

And the GI50 [49]?
Its GI50 is 16 µM (inactive).

And the GI50 [50]?
Its GI50 is 13.2 µM (inactive).

And the GI50 [51]?
Its GI50 is 6.37 µM (inactive).

And the GI50 [52]?
The GI50 was 22.2 µM (inactive).

What about the GI50 [53] of the same compound?
The GI50 was 16.9 µM.

And the GI50 [54]?
Its GI50 is 2.88 µM (inactive).

And the GI50 [55]?
Its GI50 is 17.9 µM (inactive).

And the GI50 [56]?
The GI50 was 29.5 µM (inactive).
